# Measured values from US9808003B2, “Herbicidally active 2-(substituted-phenyl)-cyclopentane-1,3-dione compounds and derivatives thereof” (Syngenta Limited, priority 2013, dated 2017).
# Columns and labels:
# Assay in all cases: Test 1A glasshouse assay, post-emergence herbicidal activity
# Assay type in all cases: in vivo
# [1] = tested on: Alopecurus myosuroides (ALOMY); conditions: Alopecurus myosuroides, 312 h, application rate 250 g/ha, 13 days after application, visual (100%=total damage; 0%=no damage), read-out: Post-emergence Herbicidal Activity (% Phytotoxicity) ALOMY
# Description: (§1) Seeds of a variety of test species were sown in standard soil in pots. After cultivation for one day (pre-emergence) or after 8 days cultivation (post-emergence) under controlled conditions in a glasshouse (at 24/16° C., day/night; 14 hours light; 65% humidity), the plants were sprayed with an aqueous spray solution derived from the formulation of the technical active ingredient in acetone/water (50:50) solution containing 0.5% Tween 20 (polyoxyethelyene sorbitan monolaurate, CAS RN 9005-64-5). The test plants were then grown under controlled conditions in a glasshouse (at 24/16° C., day/night; 14 hours light; 65% humidity) and watered twice daily. 13 days after application of the test herbicide, for pre- and post-emergence, the test was evaluated visually for percentage phytotoxicity to the plant (where 100%=total damage to plant; 0%=no damage to plant).
# (§2) Lolium perenne (LOLPE), Alopecurus myosuroides (ALOMY), Echinochloa crus-galli (ECHCG), and Avena fatua (AVEFA); these are all grassy monocotyledonous weeds.
# Avena fatua (AVEFA) = conditions: Avena fatua, 312 h, application rate 250 g/ha, 13 days after application, visual (100%=total damage; 0%=no damage), read-out: Post-emergence Herbicidal Activity (% Phytotoxicity) AVEFA
# Description: as §1, §2
# [2] = tested on: Echinochloa crus-galli (ECHCG); conditions: Echinochloa crus-galli, 312 h, application rate 250 g/ha, 13 days after application, visual (100%=total damage; 0%=no damage), read-out: Post-emergence Herbicidal Activity (% Phytotoxicity) ECHCG
# Description: as §1, §2
# Lolium perenne (LOLPE) = conditions: Lolium perenne, 312 h, application rate 250 g/ha, 13 days after application, visual (100%=total damage; 0%=no damage), read-out: Post-emergence Herbicidal Activity (% Phytotoxicity) LOLPE
# Description: as §1, §2
smiles,measurement,setting,value
CCC(CC1CC(=O)C(c2c(C)cc(C)cc2C)C1=O)NC(=O)c1ccccc1 (stereo not shown) [Compound A88],pest or weed control at 250 g/ha,[1],80%
same,pest or weed control at 250 g/ha,Avena fatua (AVEFA),90%
same,pest or weed control at 250 g/ha,[2],100%
same,pest or weed control at 250 g/ha,Lolium perenne (LOLPE),100%
Cc1cc(C)c(C2C(=O)CC(CCNC(=O)c3cccc(F)n3)C2=O)c(C)c1 (stereo not shown) [Compound A89A],pest or weed control at 250 g/ha,[1],100%
same,pest or weed control at 250 g/ha,Avena fatua (AVEFA),100%
same,pest or weed control at 250 g/ha,[2],100%
same,pest or weed control at 250 g/ha,Lolium perenne (LOLPE),100%
COc1cccc(C(=O)NCCC2CC(=O)C(c3c(C)cc(C)cc3C)C2=O)n1 (stereo not shown) [Compound A91],pest or weed control at 250 g/ha,[1],80%
same,pest or weed control at 250 g/ha,Avena fatua (AVEFA),80%
same,pest or weed control at 250 g/ha,[2],80%
same,pest or weed control at 250 g/ha,Lolium perenne (LOLPE),80%
CCOc1cccc(C(=O)NCCC2CC(=O)C(c3c(C)cc(C)cc3C)C2=O)n1 (stereo not shown) [Compound A92],pest or weed control at 250 g/ha,[1],80%
same,pest or weed control at 250 g/ha,Avena fatua (AVEFA),80%
same,pest or weed control at 250 g/ha,[2],70%
same,pest or weed control at 250 g/ha,Lolium perenne (LOLPE),70%
Cc1cc(C)c(C2C(=O)CC(CCNC(=O)c3cccc(-c4ccccc4)n3)C2=O)c(C)c1 (stereo not shown) [Compound A93],pest or weed control at 250 g/ha,[1],70%
same,pest or weed control at 250 g/ha,Avena fatua (AVEFA),40%
same,pest or weed control at 250 g/ha,[2],50%
same,pest or weed control at 250 g/ha,Lolium perenne (LOLPE),70%
Cc1cc(C)c(C2C(=O)CC(CCNC(=O)c3cccc(C(F)(F)F)n3)C2=O)c(C)c1 (stereo not shown) [Compound A94],pest or weed control at 250 g/ha,[1],90%
same,pest or weed control at 250 g/ha,Avena fatua (AVEFA),100%
same,pest or weed control at 250 g/ha,[2],90%
same,pest or weed control at 250 g/ha,Lolium perenne (LOLPE),80%
Cc1cc(C)c(C2C(=O)CC(CCNC(=O)c3ncccc3F)C2=O)c(C)c1 (stereo not shown) [Compound A96],pest or weed control at 250 g/ha,[1],100%
same,pest or weed control at 250 g/ha,Avena fatua (AVEFA),100%
same,pest or weed control at 250 g/ha,[2],100%
same,pest or weed control at 250 g/ha,Lolium perenne (LOLPE),100%
Cc1cc(C)c(C2C(=O)CC(CCNC(=O)c3ccc(F)cn3)C2=O)c(C)c1 (stereo not shown) [Compound A97],pest or weed control at 250 g/ha,[1],100%
same,pest or weed control at 250 g/ha,Avena fatua (AVEFA),100%
same,pest or weed control at 250 g/ha,[2],100%
same,pest or weed control at 250 g/ha,Lolium perenne (LOLPE),100%
Cc1cc(-c2ncc(Cl)cc2F)cc(C)c1C1C(=O)CC(CCNC(=O)c2ccccn2)C1=O (stereo not shown) [Compound A102],pest or weed control at 250 g/ha,[1],100%
same,pest or weed control at 250 g/ha,Avena fatua (AVEFA),100%
same,pest or weed control at 250 g/ha,[2],100%
same,pest or weed control at 250 g/ha,Lolium perenne (LOLPE),100%
Cc1cc(-c2ccc(Cl)cc2)cc(C)c1C1C(=O)CC(CCNC(=O)c2ccccn2)C1=O (stereo not shown) [Compound A104],pest or weed control at 250 g/ha,[1],90%
same,pest or weed control at 250 g/ha,Avena fatua (AVEFA),90%
same,pest or weed control at 250 g/ha,[2],100%
same,pest or weed control at 250 g/ha,Lolium perenne (LOLPE),100%
Cc1cc(Cl)c(C2C(=O)CC(CCNC(=O)c3ccccn3)C2=O)c(Cl)c1 (stereo not shown) [Compound A105],pest or weed control at 250 g/ha,[1],40%
same,pest or weed control at 250 g/ha,Avena fatua (AVEFA),90%
same,pest or weed control at 250 g/ha,[2],100%
same,pest or weed control at 250 g/ha,Lolium perenne (LOLPE),90%
O=C(NCCC1CC(=O)C(c2c(Cl)cc(-c3ccc(F)cc3)cc2Cl)C1=O)c1ccccn1 (stereo not shown) [Compound A106],pest or weed control at 250 g/ha,[1],90%
same,pest or weed control at 250 g/ha,Avena fatua (AVEFA),100%
same,pest or weed control at 250 g/ha,[2],100%
same,pest or weed control at 250 g/ha,Lolium perenne (LOLPE),100%
Cc1cc(-c2cc(F)cc(F)c2)cc(C)c1C1C(=O)CC(CCNC(=O)c2ccccn2)C1=O (stereo not shown) [Compound A109],pest or weed control at 250 g/ha,[1],100%
same,pest or weed control at 250 g/ha,Avena fatua (AVEFA),100%
same,pest or weed control at 250 g/ha,[2],100%
same,pest or weed control at 250 g/ha,Lolium perenne (LOLPE),100%
Cc1cc(-c2ccc(F)c(Cl)c2)cc(C)c1C1C(=O)CC(CCNC(=O)c2ccccn2)C1=O (stereo not shown) [Compound A110],pest or weed control at 250 g/ha,[1],90%
same,pest or weed control at 250 g/ha,Avena fatua (AVEFA),100%
same,pest or weed control at 250 g/ha,[2],100%
same,pest or weed control at 250 g/ha,Lolium perenne (LOLPE),100%
"Cc1cc(-c2cccc(Cl)c2)cc(C)c1C1C(=O)CC(CCNC(=O)c2ccccn2)C1=O (stereo not shown) [Compound A111, N-[2-[3-[4-(3-chlorophenyl)-2,6-dimethyl-phenyl]-2,4-dioxo-cyclopentyl]ethyl]pyridine-2-carboxamide]",pest or weed control at 250 g/ha,[1],100%
same,pest or weed control at 250 g/ha,Avena fatua (AVEFA),100%
same,pest or weed control at 250 g/ha,[2],100%
same,pest or weed control at 250 g/ha,Lolium perenne (LOLPE),100%
CC#Cc1cc(C)c(C2C(=O)CC(CCNC(=O)c3cccc(F)n3)C2=O)c(C)c1 (stereo not shown) [Compound A114],pest or weed control at 250 g/ha,[1],100%
same,pest or weed control at 250 g/ha,Avena fatua (AVEFA),100%
same,pest or weed control at 250 g/ha,[2],100%
same,pest or weed control at 250 g/ha,Lolium perenne (LOLPE),100%
CC#Cc1cc(C)c(C2C(=O)CC(CCNC(=O)C(C)(C)C)C2=O)c(C)c1 (stereo not shown) [Compound A115],pest or weed control at 250 g/ha,[1],100%
same,pest or weed control at 250 g/ha,Avena fatua (AVEFA),100%
same,pest or weed control at 250 g/ha,[2],100%
same,pest or weed control at 250 g/ha,Lolium perenne (LOLPE),100%
CC#Cc1cc(C)c(C2C(=O)CC(CCNC(=O)c3ccc(F)cc3)C2=O)c(C)c1 (stereo not shown) [Compound A116],pest or weed control at 250 g/ha,[1],90%
same,pest or weed control at 250 g/ha,Avena fatua (AVEFA),100%
same,pest or weed control at 250 g/ha,[2],100%
same,pest or weed control at 250 g/ha,Lolium perenne (LOLPE),100%
Cc1cc(-c2ccc(F)cn2)cc(C)c1C1C(=O)CC(CCNC(=O)c2ccccn2)C1=O (stereo not shown) [Compound A117],pest or weed control at 250 g/ha,[1],100%
same,pest or weed control at 250 g/ha,Avena fatua (AVEFA),100%
same,pest or weed control at 250 g/ha,[2],100%
same,pest or weed control at 250 g/ha,Lolium perenne (LOLPE),100%
Cc1cc(C)c(C2C(=O)CC(CCNC(=O)c3ccc(Cl)cn3)C2=O)c(C)c1 (stereo not shown) [Compound A118],pest or weed control at 250 g/ha,[1],100%
same,pest or weed control at 250 g/ha,Avena fatua (AVEFA),100%
same,pest or weed control at 250 g/ha,[2],100%
same,pest or weed control at 250 g/ha,Lolium perenne (LOLPE),100%
Cc1ccnc(C(=O)NCCC2CC(=O)C(c3c(C)cc(C)cc3C)C2=O)c1 (stereo not shown) [Compound A119],pest or weed control at 250 g/ha,[1],100%
same,pest or weed control at 250 g/ha,Avena fatua (AVEFA),90%
same,pest or weed control at 250 g/ha,[2],100%
same,pest or weed control at 250 g/ha,Lolium perenne (LOLPE),90%
Cc1cc(C)c(C2C(=O)CC(CCNC(=O)c3cc(Br)ccn3)C2=O)c(C)c1 (stereo not shown) [Compound A121],pest or weed control at 250 g/ha,[1],90%
same,pest or weed control at 250 g/ha,Avena fatua (AVEFA),90%
same,pest or weed control at 250 g/ha,[2],100%
same,pest or weed control at 250 g/ha,Lolium perenne (LOLPE),100%
COc1cc(C)c(C2C(=O)CC(CCNC(=O)c3ccccn3)C2=O)c(C)c1 (stereo not shown) [Compound A122],pest or weed control at 250 g/ha,[1],100%
same,pest or weed control at 250 g/ha,Avena fatua (AVEFA),90%
same,pest or weed control at 250 g/ha,[2],100%
same,pest or weed control at 250 g/ha,Lolium perenne (LOLPE),100%
Cc1cccc(C)c1C1C(=O)CC(CCNC(=O)c2ccccn2)C1=O (stereo not shown) [Compound A123],pest or weed control at 250 g/ha,[1],100%
same,pest or weed control at 250 g/ha,Avena fatua (AVEFA),100%
same,pest or weed control at 250 g/ha,[2],90%
same,pest or weed control at 250 g/ha,Lolium perenne (LOLPE),100%
Cc1cc(Cl)cc(C)c1C1C(=O)CC(CCNC(=O)c2ccccn2)C1=O (stereo not shown) [Compound A124],pest or weed control at 250 g/ha,[1],100%
same,pest or weed control at 250 g/ha,Avena fatua (AVEFA),100%
same,pest or weed control at 250 g/ha,[2],100%
same,pest or weed control at 250 g/ha,Lolium perenne (LOLPE),100%
Cc1cc(Br)cc(C)c1C1C(=O)CC(CCNC(=O)c2ccccn2)C1=O (stereo not shown) [Compound A125],pest or weed control at 250 g/ha,[1],100%
same,pest or weed control at 250 g/ha,Avena fatua (AVEFA),100%
same,pest or weed control at 250 g/ha,[2],100%
same,pest or weed control at 250 g/ha,Lolium perenne (LOLPE),100%
"Cc1cc(OCC(F)(F)F)cc(C)c1C1C(=O)CC(CCNC(=O)c2ccccn2)C1=O (stereo not shown) [Compound A126, N-[2-[3-[2,6-dimethyl-4-(2,2,2-trifluoroethoxy)phenyl]-2,4-dioxo-cyclopentyl]ethyl]pyridine-2-carboxamide]",pest or weed control at 250 g/ha,[1],100%
same,pest or weed control at 250 g/ha,Avena fatua (AVEFA),100%
same,pest or weed control at 250 g/ha,[2],100%
same,pest or weed control at 250 g/ha,Lolium perenne (LOLPE),100%
Cc1cc(Oc2ncc(Cl)cc2F)cc(C)c1C1C(=O)CC(CCNC(=O)c2ccccn2)C1=O (stereo not shown) [Compound A126A],pest or weed control at 250 g/ha,[1],90%
same,pest or weed control at 250 g/ha,Avena fatua (AVEFA),90%
same,pest or weed control at 250 g/ha,[2],90%
same,pest or weed control at 250 g/ha,Lolium perenne (LOLPE),90%
